The text below walks through data of ChEMBL document CHEMBL1201862, “PubChem BioAssay data set” (2004).

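1) Cells in 96-well plates. 2) Compound, 48 h, 5 concentrations. 3) Linear interpolation between surrounding doses. 4) Unreached endpoint = highest concentration. At the GI50, growth is halved.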 The source made the active and inactive calls. Rule as the data show it: active = GI50 up to about 1.1 µM and inactive = higher.

Among the test systems are UO-31; NCI-H226; TK-10; Malme-3M; UACC-62; SK-OV-3; SR; PC-3; Hs-578T; SW-620; SNB-19; MDA-N; IGROV-1; COLO 205; HCT-15; MDA-MB-231; RPMI-8226; M14; HCC 2998.
Holding throughout (assay): NCI tumour cell line growth inhibition, 48 h

For the compound `O=C(c1ccc(Cl)cc1)N(C(=S)OCc1ccccn1)c1ccccc1`, the GI50 with UO-31 was 31 µM (inactive); with NCI-H226, 33.7 µM (inactive); with TK-10 it was 88.1 µM (inactive); in the assay on Malme-3M it was 61.1 µM (inactive); in the assay on UACC-62, > 100 µM (inactive); in the assay on SK-OV-3 it was > 100 µM (inactive). For the same compound, the GI50 was > 100 µM (inactive) in the assay with SR; 45.1 µM (inactive) with PC-3; > 100 µM (inactive) with Hs-578T; 66.7 µM (inactive) in the assay with SW-620; > 100 µM (inactive) in the assay on SNB-19; > 100 µM (inactive) with MDA-N. In addition, the GI50 is 36.1 µM (inactive) in the assay with IGROV-1; > 100 µM (inactive) with COLO 205; 40.4 µM in the assay on HCT-15; > 100 µM (inactive) with MDA-MB-231; 40.6 µM (inactive) in the assay with RPMI-8226; 65.3 µM (inactive) with M14.

As for `COC(=O)NC1=NNC(=O)c2ccccc2N1`, the GI50 in the assay with UO-31, in the assay on NCI-H226, in the assay on TK-10, in the assay with UACC-62, in the assay with SK-OV-3 and with SR was > 100 µM (inactive) in each case. Moreover, the GI50 in the assay with HCC 2998, in the assay on PC-3, in the assay with Hs-578T, with SW-620, in the assay on SNB-19 and with MDA-N was > 100 µM (inactive) in each case. In addition, the GI50 was > 100 µM (inactive) with IGROV-1; > 100 µM (inactive) with COLO 205; > 100 µM in the assay on HCT-15; > 100 µM (inactive) in the assay with MDA-MB-231; > 100 µM (inactive) in the assay with RPMI-8226; > 100 µM (inactive) with M14.

For `O=C(O)CNC(=O)c1ccc2cc(C(=O)N3CC(CCl)c4ccc([N+](=O)[O-])cc43)[nH]c2c1` (configuration not stated), the GI50 in the assay with UO-31, with NCI-H226, in the assay on TK-10, in the assay with UACC-62, with SK-OV-3 and in the assay with SR was > 100 µM (inactive) in each case. The GI50 in the assay with PC-3, with Hs-578T, in the assay on SW-620, in the assay on SNB-19, with MDA-N and in the assay on IGROV-1 was > 100 µM (inactive) in each case. Moreover, the GI50 with COLO 205 was > 100 µM (inactive); in the assay on HCT-15, > 100 µM; with MDA-MB-231 it was > 100 µM (inactive); with RPMI-8226, > 100 µM (inactive); with M14, > 100 µM (inactive).

In the case of `CCC1c2[nH]c3ccccc3c2C[C@H]2C(=O)NC(CCCCNC(=O)OC(C)(C)C)C(=O)N12` (some centres not stated), the GI50 with UO-31 was 34.6 µM (inactive); in the assay on NCI-H226 it was > 100 µM (inactive); in the assay on TK-10, 33.6 µM (inactive); in the assay on Malme-3M, 18 µM (inactive); in the assay on UACC-62, 20.5 µM (inactive); in the assay on SK-OV-3, 55.8 µM (inactive). Further, the GI50 in the assay on SR was 24.8 µM (inactive); in the assay on PC-3, 22.7 µM (inactive); with Hs-578T, 19.7 µM (inactive); in the assay on SW-620, 47.2 µM (inactive); with SNB-19, 44.2 µM (inactive); with MDA-N, 20.7 µM (inactive). Further, the GI50 is 36.1 µM (inactive) with IGROV-1; 29.9 µM (inactive) with COLO 205; 31 µM with HCT-15; 32.7 µM (inactive) with MDA-MB-231; 24.5 µM (inactive) in the assay on RPMI-8226; 17.5 µM (inactive) in the assay with M14.

As to `CC(=O)N1C=Cc2c(c(C)c3c([nH]c4ccccc43)c2C)C1`, the GI50 with NCI-H226 was 10.3 µM (inactive); in the assay with TK-10 it was 10.8 µM (inactive); with Malme-3M it was 7.53 µM (inactive); in the assay on SK-OV-3, 13.6 µM (inactive); with SR, 34.2 µM (inactive); with PC-3, 4.95 µM (inactive). For the same compound, the GI50 with Hs-578T was 3.62 µM (inactive); in the assay on SW-620, 2.51 µM (inactive); in the assay with SNB-19 it was 10.2 µM (inactive); in the assay with MDA-N it was 8.75 µM (inactive); with IGROV-1 it was 3.76 µM (inactive); in the assay with COLO 205 it was 2.4 µM (inactive). In addition, the GI50 is 2.1 µM in the assay on HCT-15, 3.2 µM (inactive) with MDA-MB-231, 14.7 µM (inactive) in the assay on RPMI-8226 and 7.28 µM (inactive) in the assay on M14.

Turning to `O=c1o[nH]/c(=N/c2ccccc2)n1-c1ccccc1`, the GI50 with UO-31, in the assay with NCI-H226, with TK-10, with Malme-3M, in the assay with UACC-62 and in the assay with SK-OV-3 was > 100 µM (inactive) each time. For the same compound, the GI50 in the assay on SR was > 100 µM (inactive); in the assay with HCC 2998, 93.3 µM (inactive); in the assay on PC-3 it was > 100 µM (inactive); in the assay on Hs-578T, > 100 µM (inactive); with SW-620, > 100 µM (inactive); in the assay with SNB-19, > 100 µM (inactive). Besides, the GI50 in the assay on MDA-N was > 100 µM (inactive); with IGROV-1 it was > 100 µM (inactive); in the assay on COLO 205 it was > 100 µM (inactive); in the assay on HCT-15 it was > 100 µM; in the assay with MDA-MB-231, > 100 µM (inactive); with M14 it was > 100 µM (inactive).

For `CCCCCCSC[C@H](OC(C)=O)[C@@H](OC(C)=O)[C@@H](OC(C)=O)[C@@H](COC(C)=O)OC(C)=O`, the GI50 in the assay with UO-31, in the assay with NCI-H226, in the assay with TK-10, with Malme-3M, with UACC-62 and in the assay on SK-OV-3 was > 100 µM (inactive) throughout. For the same compound, the GI50 in the assay on HCC 2998 is > 100 µM (inactive); in the assay on PC-3, 27.7 µM (inactive); with Hs-578T, > 100 µM (inactive); in the assay on SW-620 it was > 100 µM (inactive); with SNB-19, > 100 µM (inactive); in the assay with MDA-N it was > 100 µM (inactive). In addition, the GI50 in the assay on IGROV-1 is 83.8 µM (inactive); in the assay with COLO 205 it was 64.9 µM (inactive); with HCT-15, 62.5 µM; in the assay with MDA-MB-231 it was > 100 µM (inactive); in the assay with RPMI-8226, 13.3 µM (inactive); in the assay with M14 it was 89.7 µM (inactive).

On to `C/C(=N/NC(=S)N(C)C)c1ccccc1O`, for which the GI50 in the assay on UO-31 is 8.67 µM (inactive); in the assay on NCI-H226 it was > 23.7 µM (inactive); in the assay on TK-10 it was 13.3 µM (inactive); in the assay with Malme-3M, 7.26 µM (inactive); in the assay with UACC-62 it was 6.46 µM (inactive); in the assay on SK-OV-3, > 44.5 µM (inactive). Also, the GI50 in the assay with HCC 2998 is 18.7 µM (inactive); with PC-3, 10.1 µM (inactive); in the assay with Hs-578T it was > 72.4 µM (inactive); with SW-620 it was 9.4 µM (inactive); in the assay with SNB-19, > 59.8 µM (inactive); with MDA-N it was 11.9 µM (inactive). In addition, the GI50 with IGROV-1 was 5.98 µM (inactive); in the assay on COLO 205, 13.7 µM (inactive); in the assay with HCT-15 it was 3.28 µM; with MDA-MB-231 it was 35.8 µM (inactive); in the assay with RPMI-8226 it was > 31.8 µM (inactive); in the assay with M14, 7.35 µM (inactive).

As for `O=C1CSC(c2ccccc2O)N1c1ccc2c(c1)Oc1c(Cl)c3c(c(Cl)c1=N2)Oc1cc(N2C(=O)CSC2c2ccccc2O)ccc1N=3` (configuration not stated), the GI50 in the assay on UO-31 is > 100 µM (inactive); in the assay with NCI-H226, 73.6 µM (inactive); in the assay on TK-10 it was 62.5 µM (inactive); in the assay with SK-OV-3 it was 25.8 µM (inactive); in the assay on SR it was 0.873 µM (active); in the assay with HCC 2998 it was 53.3 µM (inactive). For the same compound, the GI50 is 38.4 µM (inactive) in the assay on PC-3; 30.3 µM (inactive) in the assay with Hs-578T; 27.4 µM (inactive) in the assay with SW-620; 38.4 µM (inactive) in the assay on MDA-N; 36.1 µM (inactive) in the assay with IGROV-1; > 100 µM in the assay on HCT-15. The GI50 in the assay with MDA-MB-231 was 28.9 µM (inactive); with RPMI-8226, 23.7 µM (inactive); with M14, 48.6 µM (inactive).

On to `Oc1c(Br)cc(CN(Cc2cc(Br)c(O)c(Br)c2)C2CCCCC2)cc1Br`, for which the GI50 with UO-31, in the assay on NCI-H226, with TK-10, with Malme-3M, in the assay with UACC-62 and in the assay with SK-OV-3 was > 100 µM (inactive) throughout. The GI50 in the assay on SR, with PC-3, in the assay with Hs-578T, in the assay on SW-620, in the assay with SNB-19 and in the assay on MDA-N was > 100 µM (inactive) throughout. Moreover, the GI50 with IGROV-1 was > 100 µM (inactive); in the assay with COLO 205 it was > 100 µM (inactive); with HCT-15, > 100 µM; in the assay with MDA-MB-231, > 100 µM (inactive); in the assay on RPMI-8226, > 100 µM (inactive); with M14 it was > 100 µM (inactive).

For `CC1=CC(=O)c2ccccc2C1=O` [MENADIONE], the GI50 is 2.65 µM (inactive) with UO-31; 14.3 µM (inactive) with NCI-H226; 19.9 µM (inactive) in the assay on TK-10; 4.76 µM (inactive) in the assay with Malme-3M; 4.67 µM (inactive) in the assay on UACC-62; 13 µM (inactive) in the assay with SK-OV-3. The GI50 in the assay with HCC 2998 was 17 µM (inactive); with PC-3 it was 3.61 µM (inactive); with Hs-578T, 10.7 µM (inactive); with SW-620, 2.14 µM (inactive); in the assay on SNB-19, 17.9 µM (inactive); with MDA-N, 0.91 µM (active). Besides, the GI50 is 15.7 µM (inactive) in the assay with IGROV-1; 17.7 µM (inactive) with COLO 205; 3.42 µM with HCT-15; 5.06 µM (inactive) with MDA-MB-231; 1.72 µM (inactive) in the assay on RPMI-8226; 5.66 µM (inactive) in the assay on M14.
